Source: US8497352B2, “Use of Wnt5-α peptide derivates for the treatment of melanoma and gastric cancer” (Wntresearch AB, priority 2008, dated 2013)
Bridges are numbered along the chain shown (N, C = ends). Where no end group is shown, it is not given here.

What was measured:
Format in all cases: cell-based, human
[1] = tested on: Wnt-5a-induced Ca^2+ signaling; assay: Determination of cytosolic free calcium levels (fura-2) in A2058 cells; conditions: for Cytosolic Ca^2+ response in A2058 cells, control G-protein coupled receptor ligands: endothelin-1 10 nM, charbacol 5 μM
Experimental: Cells grown on a glass cover slip were incubated with 4 μM fura-2/AM in culture medium for 30 minutes at 37° C. (Dejmek et al., 2006). After fura-2 loading of the cells, the cover slips were washed and mounted in a specially designed chamber to which was added a calcium-containing medium (136 mM NaCl, 4.7 mM KCl, 1.2 mM MgSO4, 1.1 mM CaCl2, 1.2 KH2PO4, 5 mM NaHCO3, 5.5 mM glucose and 20 mM Hepes, pH 7.4). The chamber was then placed in a system consisting of a NIKON Diaphot microscope connected to a Photon Technology International (PTI) imaging system. The cells were first allowed to rest for 10 minutes before any stimulation was performed. Fura-2 fluorescence was then recorded continuously from the cells before and after the stimulations with either Wnt-5a, endothelin-1 or charbacol (as indicated in the legend to FIG. 8) using an excitation wavelength rapidly alternating between 340 and 380 nm, while the emission wavelength was set at 510 nm. The fluorescence intensity ratios (340/380 nm) were subsequently calculated and analyzed using the PTI Image Master Software. Statistical analysis—The Student's t-test for unpaired samples was used to analyze differences in the experiments, where *=p<0.05, **=p<0.01, and ***=p<0.001

A2058 melanoma cells [2] = assay: BD Matrigel invasion chamber assay, A2058 cells
Experimental: Cell invasion was analyzed using the BD Matrigel™ invasion chamber assay (BD Biosciences, Bedford, Mass.). Prior to the initiation of each experiment, the cells were detached with Versene and re-suspended as single cells in serum-free RPMI medium. As indicated, cells were pre-incubated with the Box5 peptide (100 μM) or control solvent for 40 min with continuous agitation. An aliquot of the cell suspension containing 25,000 cells and 100 μM Box5 or control solvent was then added to the upper transwell chamber, and the lower chamber was filled with serum-containing (10%) medium. The invasion chambers were shaken horizontally for 5 min to ensure even distribution of the cells in suspension and subsequently across the membrane surface. The cells were allowed to invade for the periods of time indicated at 37° C. in a humidified atmosphere of 5% CO2. The medium was discarded and cells were fixed in 4% paraformaldehyde for 10 min. The cells were stained with 0.5% crystal violet in 20% methanol for 10 min and the non-invading cells on the inner side of the membrane were removed with a cotton-tipped applicator. The membrane was cut out of the chamber using a scalpel blade and the stained cells on the lower chamber side of the membrane were counted.

A2058 melanoma cells [3] = assay: Wound-healing assay (migration), A2058 cells; conditions: 5 ng/ml TGF-β1
Experimental: Cells were plated in 12 well plates and allowed to grow into a confluent layer in complete RPMI (for A2058 cells) or complete McCoy's 5A medium (for HTB63 cells). As indicated, cells were pre-incubated with the Box5 peptide (100 μM) or control solvent for 40 min with continuous agitation. A wound was then inflicted by making a scratch through the confluent layer of cells with a pipette tip. During the migration period of the assay, cells were incubated either in serum-free medium or in the case of HTB63 cells in their own serum-free-conditioned medium collected from cells cultured for 48 h and used within 2 days after collection. The exact conditions of each experiment are described above. To avoid loss of activity, cell medium was changed after 24 hours. A picture for each scratch was taken in the same area of cells at 0, 16, 24, 40 and 48 hours, and wound healing was measured as percentage of wound area closed. For each experimental condition wound healing was analysed in triplicate. All data were based on 3 to 8 separate experiments as indicated.

A2058 melanoma cells [4] = assay: Cell adhesion assay, A2058 cells; conditions: TGF-β1, 60 min adhesion
Experimental: Cells pre-treated and stimulated as described below were detached with Versene, re-suspended in serum-free RPMI medium and samples containing 30,000 cells from each treatment group were added to each well of a 96-well plate The cells were allowed to adhere for 60 min at 37° C. in a humidified atmosphere of 5% carbon dioxide after which the non-adherent cells were washed away with PBS. The adherent cells were fixed in 1% glutaraldehyde for 10 min at room temperature and then stained with 0.5% crystal violet in 20% methanol for 10 min. Finally the stain from each group of cells was dissolved in 50% acetic acid. The amount of dissolved stain from each well was thereafter measured in a Fluostar plate reader (BMG Lab Technologies GmbH, Offenberg, Germany) at 544 nm. The individual samples from each separate experiment were analysed in quadruplicate and the accumulated data were based on 5 separate experiments. The results are illustrated in FIG. 4. • A) A2058 melanoma cells were stimulated with the indicated concentrations of Wnt-5a, detached with Versene and resuspended as single cells in serum-free medium in the presence or absence of recombinant Wnt-5a at the indicated concentrations. Cells were then allowed to adhere in a 96-well plate. After a period of 60 min the non-adherent cells were washed away while the adherent cells were stained and their number determined. This number is presented as a percentage of the control (no Wnt-5a) stimulation (FIG. 4A) • B) A2058 melanoma cells were cultured to confluence in a 12-well plate after which a scratch was inflicted in each well, the medium was changed to fresh serum-free medium lacking (closed circles) or containing 0.2 μg/ml Wnt-5a (open squares). (FIG. 4B) • C) A2058 melanoma cells were cultured to confluence in a 12-well plate after which a scratch was inflicted to each well, the medium was changed to fresh serum-free medium in the absence of any additive (closed circle), the presence of 0.2 μg/ml Wnt-5a alone (open squares) or the presence of 0.2 μg/ml Wnt-5a with 100 μM Box5 (open triangle). (FIG. 4C) • D) HTB63 melanoma cells were cultured to confluence in a 12-well dish after which a scratch was inflicted to each well, the medium was changed to fresh serum-free medium (closed circle), conditioned medium (open squares) or conditioned medium supplemented with 100 μM Box5 (open triangle). To record changes in migration in panels B-D, a picture was taken from each scratch/well from the same area of cells after 0, 16, 24, 40 or 48 hours, and the wound-healing was expressed as percentage of wound area closed. […] The cells were then allowed to invade for 24 hours after which the attached cells on the lower side of the membrane were counted. […]

[5] = tested on: Wnt-5a protein expression; assay: Wnt-5a protein expression in A2058 cells, Western blot
Experimental: The cells were either directly lysed in 1× Laemmli buffer containing DTT and boiled for 10 min, or lysed in buffer containing 50 mM Tris-HCl (pH 7.5), 1% Triton X-100, 100 mM NaCl, 10 mM MgCl2, 20% glycerol, 1 mM Na3VO4, and protease inhibitors (20 μg/ml aprotinin, 1 μg/ml leupeptin, 2.5 mM benzamidine, and 2 mM pefabloc). Cell treated with lysis buffer were centrifuged at 15,000 rpm for 5 min at 4° C. The protein content in each sample was determined and adjusted to ensure equal loading of protein in each lane. Thereafter, 50 mM DTT and 5× concentrated Laemmli buffer was added and the samples boiled for 5 min. The samples were separated by SDS polyacrylamide gel electrophoresis and subsequently transferred to PVDF membranes. For immunoblotting the membranes were blocked in PBS supplemented with 0.2% Tween 20 and 1% non-fat milk for Wnt-5a or 3% non-fat milk as for all other antibodies for 1 h. Thereafter the membranes were incubated for 1 h at room temperature or overnight at 4° C. with the indicated primary Ab (1:25,000 for β-actin; 1:1,000 for Wnt-5a and 1:1,000 for TGF-β1) in 2% non-fat milk or 1.5% BSA. After extensive washing in PBS with 0.2% Tween, the membranes were incubated for 1 h with a horseradish peroxidase-conjugated secondary Ab in 2% non-fat milk or 1.5% BSA and again extensively washed. Finally, the Ab-antigen complexes were detected using enhanced chemiluminescence. […]

For CC(=O)OCOC(=O)CN(CC(=O)OCOC(C)=O)c1ccc(C)cc1OCCOc1cc(C)ccc1N(CC(=O)OCOC(C)=O)CC(=O)OCOC(C)=O [MAPT/AM, reference compound], the “Effect on Wnt-5a-stimulated cytosolic Ca^2+ signal” value ([1]; 10 μM MAPT/AM for 30 minutes, rWnt-5a 0.1 μg/ml) was “inhibited” and the “Effect on pro-invasive effect of Wnt-5a on A2058 cells” value (A2058 melanoma cells [2]; 10 μM MAPT/AM 30 minutes pre-incubation, then 1 μM for 24 hours) was “completely abolished”.

For C[N+](C)(C)CCOC(N)=O [carbachol, reference compound], the “Cytosolic Ca^2+ response in A2058 cells, control G-protein coupled receptor ligands” value [1] was “prompt responses”.

For “TGF-β1: human recombinant TGF-β1 protein from R&D Systems”, the “Effect on migration of A2058 cells” value (A2058 melanoma cells [3]) was “increased”, the “Concentration giving maximal effect on adhesion of A2058 cells” value (A2058 melanoma cells [4]) was 5 ng/mL and the “Effect on adhesive capacity of A2058 cells” value (A2058 melanoma cells [4]) was “stimulated”. The “Concentration giving near maximal Wnt-5a expression” value ([5]; TGF-β1) was 5 ng/mL, the “Wnt-5a protein expression in A2058 cells” value ([5]; different concentrations of recombinant TGF-β1, 36 h) was “increased expression” and the “Effect on migration of A2058 cells in the invasion assay” value (A2058 melanoma cells [2]; 5 ng/ml TGF-β1, 24 hours) was “inhibited”.

In the case of “endothelin-1: G-protein coupled control receptor ligand from Sigma Aldrich (CSCSSLMDKECVYFCHLDIIW; disulfide 1-15, 3-11; ends not checked; UniProt P05305 53-73, looked up) [reference compound]”, the “Cytosolic Ca^2+ response in A2058 cells, control G-protein coupled receptor ligands” value [1] is reported as “prompt responses”.

B1: Wnt-3a: human recombinant Wnt-3a protein, canonical Wnt ligand (protein, UniProt P56704 19-352, looked up)
Protein Wnt-3a: SYPIWWSLAVGPQYSSLGSQPILCASIPGLVPKQLRFCRNYVEIMPSVAEGIKIGIQECQHQFRGRRWNCTTVHDSLAIFGPVLDKATRESAFVHAIASAGVAFAVTRSCAEGTAAICGCSSRHQGSPGKGWKWGGCSEDIEFGGMVSREFADARENRPDARSAMNRHNNEAGRQAIASHMHLKCKCHGLSGSCEVKTCWWSQPDFRAIGDFLKDKYDSASEMVVEKHRESRGWVETLRPRYTYFKVPTERDLVYYEASPNFCEPNPETGSFGTRDRTCNVSSHGIDGCDLLCCGRGHNARAERRREKCRCVFHWCCYVSCQECTRVYDVHTCK
In the case of B1, the “Stimulation of invasion of A2058 cells” value (A2058 melanoma cells [2]; 0.1 μg/ml Wnt-3a, 24 hours) is reported as “not seen”.
